According to patent US10144690B2, “1,2-diphenylethylene glycol compounds for combating aging of the skin, and cosmetic use thereof” (L'OREAL, priority 2014, dated 2018):

System: phospho-AMPK (Thr-172) (p-AMPK)
Experiment: p-AMPK expression by Western blotting in normal human epidermal keratinocytes (p-AMPK/GAPDH ratio relative to control)
Type: cell-based
Conditions: 12 hours incubation
Experimental: Normal human epidermal keratinocytes are seeded at 180 000 cells per well and cultured in SFM culture medium (supplier Gibco) supplemented with 0.25 ng/ml EGF, 25 μg/ml of pituitary extract and 25 μg/ml gentamicin, up to confluence, and incubated in a humid oven at 37° C. and 5% CO2. The culture medium was then replaced with test medium (SFM (Gibco) supplemented with 25 μg/ml gentamicin) containing or not containing (control) the test compounds, the combinations or the reference (AICAR—(5-amino-4-imidazolecarboxamide riboside) at 500 μM). The cells were then incubated for 12 hours.
The level of expression of p-AMPK was analyzed by Western blotting.
At the end of the incubation, the proteins were extracted and quantified and then separated by electrophoresis on 10% polyacrylamide gel and then transferred onto a nitrocellulose membrane.
Between each successive revelation, the antibodies were detached using a “stripping” buffer. The images were acquired with a Fuji LAS 3000 chemiluminescence scanner (Fujifilm) and the densitometric analyses were performed using the Multigauge software (Fujifilm).
An increase in the phosphorylated form of AMPK (active form of the enzyme) relative to the control is evaluated in this test.
Expressed in the form of the p-AMPK/GAPDH ratio relative to the control (100%): […]

| SMILES | p-AMPK/GAPDH ratio relative to the control (100%) (test compound 1 μM) | p-AMPK/GAPDH ratio relative to the control (100%) (test compound 10 μM) | p-AMPK/GAPDH ratio relative to the control (100%) (test compound 100 μM) |
| --- | --- | --- | --- |
| COc1ccc([C@@H](O)[C@H](O)c2ccc(OC)cc2)cc1 [Compound 1] | 133% | 171% | 198% |
| COc1ccc(C(O)[C@H](O)c2ccc(OC)cc2)cc1 (stereo partly drawn) [Compound 2] | 94% | 134% | 149% |
| COc1cc(C(O)C(O)c2ccc(O)c(OC)c2)ccc1O (stereo not drawn) [Compound 3] | 112% | 147% | 158% |
| Oc1ccc(C(O)C(O)c2cc(O)cc(O)c2)cc1 (stereo not drawn) [Compound 4] | 132% | 140% | 159% |
